According to the Kinase Knowledgebase extract (Sharma et al. 2016):
pIC50: −log10 of the molar value.

Target: PIK3CG (human) (UniProt P48736)
Experiment: Assessment of PIK3CG Kinase Activity

Chain of PIK3CG (human) (P48736 whole entry, looked up): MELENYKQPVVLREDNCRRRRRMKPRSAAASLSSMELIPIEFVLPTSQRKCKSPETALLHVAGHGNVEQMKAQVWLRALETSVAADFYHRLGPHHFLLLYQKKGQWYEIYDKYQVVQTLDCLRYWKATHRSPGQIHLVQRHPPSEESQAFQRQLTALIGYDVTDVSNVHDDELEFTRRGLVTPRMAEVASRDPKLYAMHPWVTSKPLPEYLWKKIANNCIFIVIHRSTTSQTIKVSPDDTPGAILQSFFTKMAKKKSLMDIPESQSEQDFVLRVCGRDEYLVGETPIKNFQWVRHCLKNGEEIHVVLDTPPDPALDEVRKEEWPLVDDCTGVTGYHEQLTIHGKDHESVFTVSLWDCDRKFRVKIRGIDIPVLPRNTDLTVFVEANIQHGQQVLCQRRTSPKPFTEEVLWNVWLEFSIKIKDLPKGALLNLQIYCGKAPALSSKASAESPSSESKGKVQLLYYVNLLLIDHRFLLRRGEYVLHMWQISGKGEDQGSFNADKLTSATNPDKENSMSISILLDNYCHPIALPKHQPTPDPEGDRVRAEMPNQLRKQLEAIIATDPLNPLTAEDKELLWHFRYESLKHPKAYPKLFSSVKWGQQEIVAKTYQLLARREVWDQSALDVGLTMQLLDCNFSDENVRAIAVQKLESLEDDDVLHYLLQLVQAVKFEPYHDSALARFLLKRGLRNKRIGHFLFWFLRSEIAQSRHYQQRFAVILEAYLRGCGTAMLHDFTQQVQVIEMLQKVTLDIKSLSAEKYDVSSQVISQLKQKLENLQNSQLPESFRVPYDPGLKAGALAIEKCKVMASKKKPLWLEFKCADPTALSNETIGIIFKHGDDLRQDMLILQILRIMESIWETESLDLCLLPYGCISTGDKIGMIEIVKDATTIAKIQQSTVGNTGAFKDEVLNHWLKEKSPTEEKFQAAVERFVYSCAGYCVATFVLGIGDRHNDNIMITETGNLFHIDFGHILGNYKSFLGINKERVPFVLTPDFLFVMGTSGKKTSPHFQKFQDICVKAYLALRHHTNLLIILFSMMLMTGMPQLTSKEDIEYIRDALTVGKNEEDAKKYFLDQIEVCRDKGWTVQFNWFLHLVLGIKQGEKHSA

| pIC50 | SMILES |
| --- | --- |
| > 6.10 | CN(C)CCN(C)C(=O)Nc1nc2c(s1)-c1c(cnn1-c1ccccc1Cl)C2 |
| > 6.10 | CC(=O)Nc1nc2c(s1)-c1c(cnn1-c1ccc3nc[nH]c3c1)CC2 |
| > 6.10 | CNS(=O)(=O)c1ccc(-n2ncc3c2-c2sc(NC(C)=O)nc2CC3)cc1 |
| > 6.10 | CC(=O)Nc1nc2c(s1)-c1c(cnn1-c1ccc(CCNC(=O)c3ccccc3)cc1)CC2 |
| > 6.10 | CC(=O)Nc1nc2c(s1)-c1nc(N3CCCOCC3)ncc1CC2 |
| > 6.10 | CC(=O)Nc1nc2c(s1)-c1c(c(C#C[Si](C)(C)C)nn1-c1ccccc1Cl)CC2 |
| > 6.10 | CC(=O)Nc1nc2c(s1)-c1c(cnn1-c1ccc(CC(=O)N[C@@H]3CCOC3=O)cc1)CC2 |
| > 6.10 | CC(=O)Nc1nc2c(s1)-c1c(cnn1-c1ccc(C(=O)N3CCC(N4CCOCC4)CC3)cc1Cl)CC2 |
| > 6.10 | CC(=O)Nc1nc2c(s1)-c1c(cnn1-c1ccc(C(=O)N[C@H]3CC[C@@H](N4CCN(c5ccccc5)CC4)CC3)cc1)CC2 |
| > 6.10 | CC(=O)Nc1nc2c(s1)-c1c(cnn1-c1ccc(C(=O)NC3CCC(NC(=O)c4cccc5ccccc45)CC3)cc1)CC2 (configuration not stated) |
| > 6.10 | CC(=O)Nc1nc2c(s1)-c1nc(-c3ccc(C(=O)N(C)C)cc3)ncc1CC2 |
| > 6.10 | CC(=O)Nc1nc2c(s1)-c1c(cnn1-c1ccc(CC(=O)N3CCC(CO)CC3)cc1)CC2 |
| > 6.10 | CC(=O)Nc1nc2c(s1)-c1nc(N3CCCC(CNC(C)C)C3)ncc1CC2 (configuration not stated) |
| > 6.10 | O=C(Nc1nc2c(s1)-c1nc(-c3ccccc3)ncc1CC2)N1CCCC1 |
| > 6.10 | CC(=O)Nc1nc2c(s1)-c1c(cnn1-c1ccc(C(=O)N[C@H]3CC[C@H](N(C)C)CC3)cc1)CC2 |
| > 6.10 | CC(=O)Nc1nc2c(s1)-c1c(cnn1-c1ccc(C(=O)NC3CCOC3=O)cc1)CC2 (configuration not stated) |
| > 6.10 | CC(=O)Nc1nc2c(s1)-c1c(cnn1-c1ccc(C(=O)N3CCN(C)CC3)cc1)CC2 |
| > 6.10 | CC(=O)Nc1nc2c(s1)-c1c(cnn1-c1ccc(C(=O)NC3CCC(=O)O3)cc1)CC2 (configuration not stated) |
| > 6.10 | CC(=O)Nc1nc2c(s1)-c1c(cnn1-c1ccccc1Br)C2 |
| > 6.10 | CC(=O)Nc1nc2c(s1)-c1c(c(-c3ccco3)nn1-c1ccccc1Br)CC2 |
| > 6.10 | COCc1nn(-c2ccccc2Br)c2c1CCc1nc(NC(C)=O)sc1-2 |
| > 6.10 | CC(=O)Nc1nc2c(s1)-c1c(c(-c3ccoc3)nn1-c1ccccc1Cl)CC2 |
| > 6.10 | CC(=O)Nc1nc2c(s1)-c1c(c(C(C)C)nn1-c1ccccc1)CC2 |
| > 6.10 | CCN(CCO)C(=O)c1ccc(-n2ncc3c2-c2sc(NC(C)=O)nc2CC3)cc1 |

| pIC50 | SMILES |
| --- | --- |
| > 6.10 | CC(=O)Nc1nc2c(s1)-c1nc(Cc3ccccc3)ncc1CC2 |
| > 6.10 | CC(=O)Nc1nc2c(s1)-c1nn(-c3ccccc3)c(-c3cn(C)cn3)c1CC2 |
| > 6.10 | CC(=O)Nc1nc2c(s1)-c1c(c(-c3cn(C)cn3)nn1-c1ccccc1)CC2 |
| > 6.10 | CC(=O)Nc1nc2c(s1)-c1c(cnn1-c1ccc(C(=O)Nc3ccc(N4CCN(C)CC4)cc3)cc1Cl)CC2 |
| > 6.10 | CC(=O)Nc1nc2c(s1)-c1c(c(NC(=O)NC(C)C)nn1-c1ccccc1Cl)CC2 |
| > 6.10 | CC(=O)Nc1nc2c(s1)-c1c(cnn1-c1cccc(Br)c1)CC2 |
| > 6.10 | CC(=O)Nc1nc2c(s1)-c1c(cnn1-c1ccc(C(=O)N(C)Cc3ccccc3)cc1)CC2 |
| > 6.10 | CC(=O)Nc1nc2c(s1)-c1c(cnn1-c1ccc(C(=O)N(C)Cc3ccccn3)cc1)CC2 |
| > 6.10 | CC(=O)Nc1nc2c(s1)-c1c(cnn1-c1ccc(C(=O)N3CCC[C@H]3C(N)=O)cc1)CC2 |
| > 6.10 | CC(=O)Nc1nc2c(s1)-c1c(c(-c3ccoc3)nn1-c1ccccc1C)CC2 |
| > 6.10 | CC(=O)Nc1nc2c(s1)-c1c(c(C(C)C)nn1-c1ccc(C(=O)N[C@H]3CC[C@H](N4CCCC4)CC3)cc1Cl)CC2 |
| > 6.10 | Nc1nc2c(s1)-c1nc(-c3ccccc3)ncc1CC2 |
| > 6.10 | Nc1nc2c(s1)-c1c(cnn1-c1ccccc1)C2 |
| > 6.10 | CC(=O)Nc1nc2c(s1)-c1c(c(-c3ccco3)nn1-c1ccccc1)CC2 |
| > 6.10 | CC(=O)Nc1nc2c(s1)-c1c(cnn1-c1cccc(N3C4CCC3CC(O)C4)c1)CC2 (configuration not stated) |
| > 6.10 | CC(=O)Nc1nc2c(s1)-c1c(cnn1-c1ccc(C(=O)N(C)CC(C)O)cc1)CC2 (configuration not stated) |
| > 6.10 | CC(=O)Nc1nc2c(s1)-c1c(cnn1-c1ccc(C(=O)NCCCCCCNC(=O)Cc3ccccc3)cc1)CC2 |
| > 6.10 | CC(=O)Nc1nc2c(s1)-c1c(cnn1-c1ccc(S(=O)(=O)N(C)C)cc1)CC2 |
| > 6.10 | CC(=O)Nc1nc2c(s1)-c1c(c(C(=O)N[C@@H]3CCOC3=O)nn1-c1ccccc1)CC2 |
| > 6.10 | CC(=O)Nc1nc2c(s1)-c1c(cnn1-c1ccccn1)CC2 |
| > 6.10 | CC(=O)Nc1nc2c(s1)-c1c(cnn1-c1ccc(C(=O)N[C@@H](Cc3ccc(O)cc3)C(N)=O)cc1Cl)CC2 |
| > 6.10 | CC(=O)Nc1nc2c(s1)-c1nc(N3CCC4(CN(C)C4)C3)ncc1CC2 |
| > 6.10 | CC(=O)Nc1nc2c(s1)-c1c(c(C(=O)N3CCOCC3)nn1-c1ccccc1Cl)CC2 |
| > 6.10 | CC(=O)Nc1nc2c(s1)-c1c(c(C(=O)NCCO)nn1-c1ccccc1)CC2 |

| pIC50 | SMILES |
| --- | --- |
| > 6.10 | CC(=O)Nc1nc2c(s1)-c1c(cnn1-c1ccc(C(=O)N3C[C@@H](C)O[C@@H](C)C3)cc1)CC2 |
| > 6.10 | CNC(=O)Nc1nc2c(s1)-c1c(cnn1-c1ccccc1)CC2 |
| > 6.10 | NC(=O)[C@@H]1CCCN1CC(=O)Nc1nc2c(s1)-c1c(cnn1-c1ccccc1)CC2 |
| > 6.10 | CC(=O)Nc1nc2c(s1)-c1c(cnn1-c1ccc(C(=O)N[C@H](CC(C)C)C(N)=O)cc1Cl)CC2 |
| > 6.10 | CC(=O)Nc1nc2c(s1)-c1c(cnn1-c1ccc(C(=O)N[C@@H](CCc3ccccc3)C(N)=O)cc1Cl)CC2 |
| > 6.10 | CNC(=O)Nc1nc2c(s1)-c1nc(-c3ccccc3)ncc1CC2 |
| > 6.10 | CC(=O)NCCCC[C@H](NC(=O)c1ccc(-n2ncc3c2-c2sc(NC(C)=O)nc2CC3)c(Cl)c1)C(N)=O |
| > 6.10 | CN(C)CCNC(=O)Nc1nc2c(s1)-c1c(cnn1-c1ccccc1)C2 |
| > 6.10 | CC(=O)Nc1nc2c(s1)-c1c(cnn1-c1ccc(C(=O)N3CCc4ccccc4C3)cc1)CC2 |
| > 6.10 | CC(=O)Nc1nc2c(s1)-c1c(c(C(C)C)nn1-c1ccc(C(=O)O)cc1Cl)CC2 |
| > 6.10 | CC(=O)Nc1nc2c(s1)-c1nc(-c3ccc(C(N)=O)cc3)ncc1CC2 |
| > 6.10 | CC(=O)Nc1nc2c(s1)-c1c(c(C(C)C)nn1-c1ccccc1Br)CC2 |
| > 6.10 | CC(=O)Nc1nc2c(s1)-c1c(c(C)nn1-c1ccc(Cl)cc1)CC2 |
| > 6.10 | NC(=O)Nc1nc2c(s1)-c1c(cnn1-c1ccccc1)CC2 |
| > 6.10 | CC(=O)Nc1nc2c(s1)-c1c(cnn1-c1ccc(C(=O)N3CCC(N4CCCCC4)CC3)cc1Cl)CC2 |
| > 6.10 | CN(C)C(=O)Nc1nc2c(s1)-c1nc(N(C)C)ncc1CC2 |
| > 6.10 | CC(=O)Nc1nc2c(s1)-c1c(cnn1-c1ccccc1C)C2 |
| > 6.10 | CC(=O)Nc1nc2c(s1)-c1c(cnn1-c1ccc(C(=O)N[C@H]3CC[C@H](N4CCCCC4)CC3)cc1)CC2 |
| > 6.10 | CC(=O)Nc1nc2c(s1)-c1c(cnn1-c1ccc(C(=O)N3CCCC(O)C3)cc1)CC2 (configuration not stated) |
| > 6.10 | CN(C)C(=O)Nc1nc2c(s1)-c1c(cnn1-c1ccccc1)C2 |
| > 6.10 | CC(=O)Nc1nc2c(s1)-c1nc(C(C)(C)C)ncc1CC2 |
| > 6.10 | CC(=O)Nc1nc2c(s1)-c1c(cnn1-c1ccccc1C)CC2 |
| > 6.10 | COCc1nn(-c2ccc(C(=O)N[C@H]3CC[C@H](N4CCCC4)CC3)cc2Cl)c2c1CCc1nc(NC(C)=O)sc1-2 |
| > 6.10 | CC(=O)Nc1nc2c(s1)-c1nn(C(C)=O)cc1CC2 |

| pIC50 | SMILES |
| --- | --- |
| > 6.10 | CC(=O)Nc1nc2c(s1)-c1c(cnn1-c1ccccc1C(C)C)C2 |
| > 6.10 | CC(=O)Nc1nc2c(s1)-c1c(cnn1-c1ccc(C(=O)N[C@@H](Cc3c[nH]cn3)C(N)=O)cc1Cl)CC2 |
| > 6.10 | CC(=O)Nc1nc2c(s1)-c1c(cnn1-c1ccccc1F)C2 |
| > 6.10 | CC(=O)Nc1nc2c(s1)-c1c(c(-c3c[nH]cn3)nn1-c1ccccc1C(F)(F)F)CC2 |
| > 6.10 | CC(=O)Nc1nc2c(s1)-c1nn(-c3ccccc3Br)c(-c3ccco3)c1CC2 |
| > 6.10 | CC(=O)Nc1nc2c(s1)-c1c(cnn1-c1ccc(C(=O)N[C@H]3CC[C@@H](N4CCCCC4)CC3)cc1)CC2 |
| > 6.10 | CC(=O)Nc1nc2c(s1)-c1c(cnn1-c1ccc(C(=O)N3CCC[C@H]3C(=O)O)cc1)CC2 |
| > 6.10 | CNc1ncc2c(n1)-c1sc(NC(C)=O)nc1CC2 |
| > 6.10 | CC(=O)Nc1nc2c(s1)-c1nc(-c3ccccc3C)ncc1CC2 |
| > 6.10 | CC(=O)Nc1nc2c(s1)-c1c(cnn1-c1ccc(C(=O)NCc3ccccn3)cc1)CC2 |
| > 6.10 | CC(=O)Nc1nc2c(s1)-c1c(cnn1-c1ccc(CC(=O)NCC(=O)N(C)C)cc1)CC2 |
| > 6.10 | CC(=O)Nc1nc2c(s1)-c1c(cnn1-c1ccc(C(=O)NC(C)(C)CN3CCN(C)CC3)cc1)CC2 |
| > 6.10 | CCN1CCCC(NC(=O)c2ccc(-n3ncc4c3-c3sc(NC(C)=O)nc3CC4)cc2)C1 (configuration not stated) |
| > 6.10 | COc1ccccc1-n1ncc2c1-c1sc(NC(C)=O)nc1CC2 |
| > 6.10 | Cc1ccccc1-n1ncc2c1C1SC(N)=NC1C2 (configuration not stated) |
| > 6.10 | CC(=O)Nc1nc2c(s1)-c1c(cnn1-c1ccc(C(=O)N3CCOCC3)cc1)CC2 |
| > 6.10 | CC(=O)Nc1nc2c(s1)-c1c(cnn1-c1ccc(C(=O)N[C@@H](CCCNC(=N)N)C(N)=O)cc1Cl)CC2 |
| > 6.10 | CC(C)(C)NC(=O)NCC#CCNC(=O)Nc1nc2c(s1)-c1c(cnn1-c1ccccc1)CC2 |
| > 6.10 | O=C(NCCn1ccnc1)Nc1nc2c(s1)-c1c(cnn1-c1ccccc1Cl)C2 |
| > 6.10 | CC(=O)Nc1nc2c(s1)-c1c(cnn1-c1ccc(C(=O)Nc3ccc(C4CCN(C)CC4)cc3)cc1Cl)CC2 |
| > 6.10 | CC(=O)Nc1nc2c(s1)-c1nn(C(=O)c3ccc(Cl)cc3)cc1CC2 |
| > 6.10 | CC(=O)Nc1nc2c(s1)-c1c(cnn1-c1ccc(C(=O)NCc3ccccc3O)cc1)CC2 |
| > 6.10 | CC(=O)Nc1nc2c(s1)-c1nc(-c3ccccc3Cl)nc(O)c1CC2 |
| > 6.10 | CC(=O)Nc1nc2c(s1)-c1c(c(C(=O)O)nn1-c1ccccc1)CC2 |

| SMILES | pIC50 |
| --- | --- |
| CC(=O)Nc1nc2c(s1)-c1c(c(NC(=O)Oc3ccccc3)nn1-c1ccccc1Cl)CC2 | > 6.10 |
